Source: patent US20100184677A1, “USE OF THE HUMAN PANCREATIC POLYPEPTIDE AS A THERAPEUTIC AGENT” (priority 2007, published 2010)

Tested on: drug-resistant Mycobacterium tuberculosis
Settings: peptide 10 micrograms per ml, seven days

CC[C@H](C)[C@H](NC(=O)[C@H](Cc1ccc(O)cc1)NC(=O)[C@H](CCCNC(=N)N)NC(=O)[C@H](CCCNC(=N)N)NC(=O)[C@H](CC(C)C)NC(=O)[C@H](CC(=O)O)NC(=O)[C@H](C)NC(=O)[C@H](C)NC(=O)[C@H](Cc1ccc(O)cc1)NC(=O)[C@H](CCC(N)=O)NC(=O)[C@H](C)NC(=O)[C@H](CCSC)NC(=O)[C@H](CCC(N)=O)NC(=O)[C@H](CCC(=O)O)NC(=O)[C@@H]1CCCN1C(=O)[C@@H](NC(=O)[C@H](C)NC(=O)[C@H](CC(N)=O)NC(=O)[C@H](CC(=O)O)NC(=O)CNC(=O)[C@@H]1CCCN1C(=O)[C@H](Cc1ccc(O)cc1)NC(=O)[C@@H](NC(=O)[C@@H]1CCCN1C(=O)[C@H](CCC(=O)O)NC(=O)[C@H](CC(C)C)NC(=O)[C@@H]1CCCN1C(=O)[C@H](C)N)C(C)C)[C@@H](C)O)C(=O)N[C@@H](CC(N)=O)C(=O)N[C@@H](CCSC)C(=O)N[C@@H](CC(C)C)C(=O)N[C@H](C(=O)N[C@@H](CCCNC(=N)N)C(=O)N1CCC[C@H]1C(=O)N[C@@H](CCCNC(=N)N)C(=O)N[C@@H](Cc1ccc(O)cc1)C(N)=O)[C@@H](C)O [Pancreatic polypeptide]
% inhibition: 0.0%
